Test results taken from publication PMC4457826 (PLoS Pathogens, 2015).

Legend:
[1] = tested on: USP7-NTD; experiment: Fluorescence polarization, USP7-NTD; assay type: binding, human; conditions: FITC peptide 40 nM, protein up to 200 μM
Description: (§1) USP7 proteins were titrated (0 to 200 μM) with N-terminally labeled FITC-ICP0, FITC-GMPS or FITC-UHRF1 peptides (synthesized by CanPeptide, 40 nM) in 0.01% Triton X-100, 150 mM NaCl, 20 mM Tris pH 7.5. Polarized emission of FITC-ICP0 or FITC-GMPS or FITC-UHRF1 was measured with a Synergy H4 Hybrid Multi-Mode Microplate Reader (BioTek) with the excitation wavelength set at 485 nm and the emission wavelength set at 528 nm. The competition binding assay was performed with a fixed USP7-CTD concentration (8 μM), 40nM FITC-UHRF1 and increasing concentrations of unlabeled ICP0 (0 to 2500 μM). The polarization data were plotted and analyzed using GraphPad Prism version 5.0 to calculate dissociation (KD) and inhibition (Ki) constants. These assays were repeated at least 3 times and used to calculate the average and standard deviation.

[2] = tested on: USP7 Ubl345; experiment: Fluorescence polarization, Ubl345; assay type: binding, human; conditions: FITC peptide 40 nM, protein up to 200 μM
Description: as §1

[3] = biological target: T1, USP7-CTD (Homo sapiens, UniProt Q93009); experiment: Competition binding assay (fluorescence polarization), FITC-UHRF1 displacement; conditions: USP7-CTD 8 μM, FITC-UHRF1 40 nM, unlabeled ICP0 0 to 2500 μM
T1 construct: USP7-CTD (535–1102); His tag (inferred from nickel-NTA purification; vector p15TV-L); made in house; host or cells: E. coli BL21(DE3)mgk
Description: Given the importance of the KxxxK motif in ICP0 and GMPS for USP7-CTD binding, we examined the UHRF1 sequence for such a motif and identified ^642[…]^649 (Fig 4A). […] The saturation curve is shown in S3 Fig. A competitive binding assay was used to establish whether the UHRF1 and ICP0 peptides were competing for the same binding site on Ubl2. This assay was performed by measuring the fluorescence polarization with increasing amounts of unlabeled ICP0 while keeping both USP7-CTD and FITC-UHRF1 constant. […] This competition was confirmed by the competition binding experiment shown in S3 Fig.
as §1, with “These assays were repeated at least 3 times and used to calculate the average and standard deviation.” left out

[4] = tested on: 293T cells; experiment: ICP0 input levels with and without USP7, Western blot, 293T cells; assay type: cell-based; conditions: input levels of ICP0 with and without USP7, Fig 5A
Description: (§2) 293T cells were grown in Dulbecco’s modified Eagle’s medium (DMEM) (Gibco) with 10% fetal calf serum. 293T cells at 70% confluence in a 10-cm-diameter dish were transfected with 10 μg pCANmycUSP7 expressing WT USP7 or D762R/D764R (MRGR) USP7 or with pcDNA3.1 (negative control), in each case using 20 μl PolyJet (SignaGen Laboratories) transfection reagent. Cells were transferred to a 15-cm-diameter dish 24 h post-transfection and harvested 48 h post-transfection. For experiments on USP7-ICP0 interactions, 293T cells were co-transfected with 1 μg pCANmycUSP7 expressing WT or D762R/D764R (MRGR) USP7 and either 1 μg pCI-110 ICP0 or 1 μg pcDNA3.1. For controls lacking USP7, 1 μg pCI-110 ICP0 was co-transfected with 1 μg pcDNA3.1. In each case 4 μl PolyJet (SignaGen Laboratories) transfection reagent was used.
Protein samples were subjected to SDS-PAGE and transferred to nitrocellulose. […]
293T cells transfected as described above were washed in phosphate-buffered saline (PBS) and lysed on ice for 45 min in a 4x volume of RIPA buffer (50 mM Tris-HCl [pH 8], 150 mM NaCl, 0.1% sodium deoxycholate, 0.5% NP-40) with complete protease inhibitors (Sigma P8340), followed by centrifugation. […] Immunoprecipitated proteins were separated by SDS-PAGE and analyzed by Western blotting, as described above.

[5] = tested on: myc-tagged D762R/D764R (MRGR) USP7; experiment: Co-immunoprecipitation with myc-tagged D762R/D764R (MRGR) USP7 from 293T cells; assay type: cell-based, human; conditions: anti-myc IP, Western blot, Fig 5
Description: as §2
Protein samples were subjected to SDS-PAGE and transferred to nitrocellulose. Membranes were blocked in 5% skim milk in Tris-buffered saline with 1% Tween (TBS-T) and then incubated with antibodies against ICP0 (H1A027 from Virusys Corporation; 1:5000 dilution), myc (sc-40 from Santa Cruz Biotechnology; 1:5000 dilution), NP95/UHRF1 (A301-470A from Bethyl Laboratories; 1:1000 dilution), GMPS (rabbit serum raised against full-length GMPS [17]; 1:5000 dilution) and actin (MA5-15739 from Pierce; 1:20,000 dilution). After washing, blots were probed with goat anti-mouse or goat anti-rabbit peroxidase (Santa Cruz Biotechnology; 1:5000 dilution) and developed using chemiluminescence reagents (Santa Cruz biotechnology).
293T cells transfected as described above were washed in phosphate-buffered saline (PBS) and lysed on ice for 45 min in a 4x volume of RIPA buffer (50 mM Tris-HCl [pH 8], 150 mM NaCl, 0.1% sodium deoxycholate, 0.5% NP-40) with complete protease inhibitors (Sigma P8340), followed by centrifugation. 1 mg of each clarified lysate was incubated with 1 μg of anti-myc antibody for 1h, followed by incubation with 30 μl of A/G PLUS agarose resin (Santa Cruz Biotechnology) for 2 h at 4°C with end-over-end rotation. The resin was harvested by centrifugation, washed in RIPA buffer, and then boiled in SDS loading buffer. Immunoprecipitated proteins were separated by SDS-PAGE and analyzed by Western blotting, as described above.

T1 sequence (Q93009 535-1102): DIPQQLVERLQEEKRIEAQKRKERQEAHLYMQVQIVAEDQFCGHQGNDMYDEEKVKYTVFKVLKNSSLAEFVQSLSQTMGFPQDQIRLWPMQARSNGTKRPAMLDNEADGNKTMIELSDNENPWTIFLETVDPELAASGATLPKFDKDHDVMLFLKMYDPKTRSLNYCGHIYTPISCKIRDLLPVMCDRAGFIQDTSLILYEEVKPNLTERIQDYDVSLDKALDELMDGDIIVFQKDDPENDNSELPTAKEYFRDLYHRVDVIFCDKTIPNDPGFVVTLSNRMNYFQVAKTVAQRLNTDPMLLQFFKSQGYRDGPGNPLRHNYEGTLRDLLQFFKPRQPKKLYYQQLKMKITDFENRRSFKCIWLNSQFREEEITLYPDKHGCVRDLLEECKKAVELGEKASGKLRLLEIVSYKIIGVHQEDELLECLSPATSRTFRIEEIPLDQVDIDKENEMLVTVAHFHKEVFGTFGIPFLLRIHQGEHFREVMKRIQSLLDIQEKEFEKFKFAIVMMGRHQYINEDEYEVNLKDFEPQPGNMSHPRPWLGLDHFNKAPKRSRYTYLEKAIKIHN

Compound | polarization with USP7-NTD [1] | polarization with Ubl345 [2] | competition with UHRF1 peptide for binding to Ubl2 [3] | effect of WT USP7 and D762R/D764R mutant on ICP0 level [4] | recovery with D762R/D764R USP7 (co-IP), in words [5]
C[C@H](NC(=O)[C@H](CS)NC(=O)[C@H](CCCCN)NC(=O)[C@H](CCCNC(=N)N)NC(=O)[C@@H]1CCCN1C(=O)CNC(=O)[C@H](CCCNC(=N)N)NC(=O)[C@@H]1CCCN1)C(=O)N[C@@H](CCCNC(=N)N)C(=O)N[C@@H](CCCCN)C(=O)N[C@H](C(=O)N[C@@H](CCCNC(=N)N)C(=O)N[C@@H](Cc1c[nH]cn1)C(=O)O)[C@@H](C)O [ICP0 peptide] | did not show any polarization | did not show any polarization | readily competes with the UHRF1 peptide for binding to Ubl2 |  | 
ICP0: Herpes simplex virus-1 immediate-early protein ICP0, expressed in 293T cells |  |  |  | stabilizing effect on ICP0 | decreased (2-fold in multiple experiments) but not abrogated
